The values that follow come from patent publication US7772241B2, “Variolin derivatives and their use as antitumor agents” (Pharma Mar S.A., priority 2001, dated 2010).

Molecules are shown by their SMILES.

The subject of assay [1] is HT-29. The assay can be described thus: Inhibition of cells growth by colorimetric (SRB) assay, HT-29. As to conditions: for GI50 / CC50: Homo sapiens, HT-29, 48 h; for GI50: read-out: GI50 HT-29, SRB assay, 48 hours exposure; for CC50: read-out: LC50 HT-29, SRB assay, 48 hours exposure; for TGI HT-29: SRB assay, 48 hours exposure. The text has this: (§1) The finality of these assays is to interrupt the growth of a “in vitro” tumor cell culture by means a continued exhibition of the cells to the sample to be testing.
(§2) This form of the assay employs 96 well cell culture microplates of 9 mm diameter (Faircloth, 1988; Mosmann, 1983). Most of the cell lines are obtained from American Type Culture Collection (ATCC) derived from different human cancer types.
(§3) Cells are maintained in RPMI 1640 10% FBS, supplemented with 0.1 g/l penicillin and 0.1 g/l streptomycin sulphate and then incubated at 37° C., 5% CO2 and 98% humidity. For the experiments, cells were harvested from subconfluent cultures using trypsin and resuspended in fresh medium before plating.
(§4) Cells are seeded in 96 well microtiter plates, at 5×10^3 cells per well in aliquots of 195 μl medium, and they are allowed to attach to the plate surface by growing in drug free medium for 18 hours. Afterward, samples are added in aliquots of 5 μl in a ranging from 10 to 10^−8 μg/ml, dissolved in DMSO/EtOH/PBS (0.5:0.5:99). After 48 hours exposure, the antitumor effect are measured by the SRB methodology: cells are fixed by adding 50 μl of cold 50% (wt/vol) trichloroacetic acid (TCA) and incubating for 60 minutes at 4° C. Plates are washed with deionized water and dried. One hundred μl of SRB solution (0.4% wt/vol in 1% acetic acid) is added to each microtiter well and incubated for 10 minutes at room temperature. Unbound SRB is removed by washing with 1% acetic acid. Plates are air dried and bound stain is solubilized with Tris buffer. Optical densities are read on a automated spectrophotometric plate reader at a single wavelength of 490 nm.
(§5) The values for mean +/−SD of data from triplicate wells are calculated. Some parameters for cellular responses can be calculated: GI=growth inhibition, TGI=total growth inhibition (cytostatic effect) and LC=cell killing (cytotoxic effect).
(In general: In SRB staining, fixed cells bind dye roughly in proportion to their protein.)

Assay [2] concerns A-549. The assay can be described thus: Inhibition of cells growth by colorimetric (SRB) assay, A-549. As to conditions: for GI50 / CC50: Homo sapiens, A549, 48 h; for GI50: read-out: GI50 A-549, SRB assay, 48 hours exposure; for CC50: read-out: LC50 A-549, SRB assay, 48 hours exposure; for TGI A-549: SRB assay, 48 hours exposure.
From the text: as §1, §2, §3, §4, §5

Consider `CSc1nccc(-c2c3cccnc3n3c(SC)nccc23)n1` [Compound 9], for which, in assay [1], the GI50 – broadly, the concentration giving 50% growth inhibition – stood at 9.16 µM; the CC50 came to 25.7 µM; the “TGI HT-29” value turned out to be 2.57E−05. Moreover, in assay [2], the GI50 is 5.9 µM, the CC50 was 29.5 µM and the “TGI A-549” value is given as 1.18E−05.

For the compound `CSc1nccc(-c2c3cc4ccccc4nc3n3c(SC)nccc23)n1` [Compound 17a], in assay [1], the GI50 was not below 25.7 µM, the CC50 came out at 129 µM and the “TGI HT-29” value was 7.71E−05. In assay [2], the 50% growth inhibitory concentration (GI50) is not below 25.7 µM, the CC50 was 129 µM and the “TGI A-549” value was found to be 7.71E−05.

As to `COc1ccc2nc3c(cc2c1)c(-c1ccnc(SC)n1)c1ccnc(SC)n13` [Compound 17b], in assay [1], the GI50 is 7.16 µM, the CC50 stood at 19.1 µM and the “TGI HT-29” value was 1.19E−05. For the same compound, in assay [2], the GI50 amounted to 7.16 µM, the CC50 came to 19.1 µM and the “TGI A-549” value is listed as 1.19E−05.

Consider `CSc1nccc(-c2c3ccc(C)nc3n3c(SC)nccc23)n1` [Compound 22], for which, in assay [1], the GI50 amounted to 2.83 µM, the CC50 is 19.8 µM and the “TGI HT-29” value amounted to 8.50E−06. For the same compound, in assay [2], the GI50 turned out to be 0.85 µM, the CC50 stood at 22.7 µM and the “TGI A-549” value is 2.27E−06.

As for `CSc1nccc(-c2c3cccnc3n3c(N)nccc23)n1` [Compound 25], in assay [1], the GI50 stood at 0.974 µM, the CC50 was not below 162 µM and the “TGI HT-29” value was 9.74E−07. Also, in assay [2], the GI50 came out at 0.649 µM, the CC50 is not below 162 µM and the “TGI A-549” value came to 3.25E−07.

With `c1ccc(CNc2nccc(-c3c4cccnc4n4c(NCc5ccccc5)nccc34)n2)cc1` [Compound 28], in assay [1], the GI50 worked out at 109 µM, the CC50 was 109 µM and the “TGI HT-29” value came out at 1.09E−04. Also, in assay [2], the GI50 was determined as 109 µM, the CC50 was determined as 109 µM and the “TGI A-549” value turned out to be 1.09E−04.

Consider `CSc1nccc(-c2c3c(OCc4ccccc4)ccnc3n3c(SC)nccc23)n1` [Compound 52], for which, in assay [1], the GI50 is 5.36 µM, the CC50 was 15.7 µM and the “TGI HT-29” value worked out at 9.20E−06. In assay [2], the GI50 is 5.81 µM, the CC50 worked out at 15.7 µM and the “TGI A-549” value amounted to 9.56E−06.
